Key:
[1] = biological target: T1, Oatp1 (Solute carrier organic anion transporter family member 1A1) (Rattus norvegicus, UniProt P46720); experiment: TP_TRANSPORTER: inhibition of E217betaG uptake (E217betaG: 0.1 uM, Verapamil: 1000 uM) in Oatp1-expressing LLC-PK1 cells; assay type: functional, cell-based; set-up: scale not given: the % may be the effect or the level left; details: pig, probe E217betaG, read-out: Activity
T1 sequence (P46720 whole entry): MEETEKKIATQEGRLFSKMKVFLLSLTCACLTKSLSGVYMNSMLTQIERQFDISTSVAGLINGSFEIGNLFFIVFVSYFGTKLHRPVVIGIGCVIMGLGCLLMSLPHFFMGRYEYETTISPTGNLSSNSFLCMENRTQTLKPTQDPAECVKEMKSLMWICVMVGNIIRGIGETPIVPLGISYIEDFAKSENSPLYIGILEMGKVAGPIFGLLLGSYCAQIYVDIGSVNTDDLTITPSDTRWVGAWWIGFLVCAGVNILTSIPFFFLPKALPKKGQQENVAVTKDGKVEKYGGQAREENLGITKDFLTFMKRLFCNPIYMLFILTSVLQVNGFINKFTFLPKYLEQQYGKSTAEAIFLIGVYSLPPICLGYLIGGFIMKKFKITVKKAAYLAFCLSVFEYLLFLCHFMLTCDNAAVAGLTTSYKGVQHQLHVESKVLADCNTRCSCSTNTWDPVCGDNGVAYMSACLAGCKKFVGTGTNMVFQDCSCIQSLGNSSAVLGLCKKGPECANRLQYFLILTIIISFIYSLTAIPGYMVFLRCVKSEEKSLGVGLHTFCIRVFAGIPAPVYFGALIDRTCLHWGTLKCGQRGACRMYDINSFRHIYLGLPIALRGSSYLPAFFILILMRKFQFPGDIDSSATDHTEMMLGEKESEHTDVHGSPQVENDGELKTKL

[2] = biological target: T2, Oatp2 (Solute carrier organic anion transporter family member 1A4) (Rattus norvegicus, UniProt O35913); experiment: TP_TRANSPORTER: inhibition of Digoxin uptake (Digoxin: 0.05 uM, Verapamil: 1000 uM) in Oatp2-expressing LLC-PK1 cells; assay type: functional, cell-based; set-up: scale not given: the % may be the effect or the level left; details: pig, probe Digoxin, read-out: Activity
T2 sequence (O35913 whole entry): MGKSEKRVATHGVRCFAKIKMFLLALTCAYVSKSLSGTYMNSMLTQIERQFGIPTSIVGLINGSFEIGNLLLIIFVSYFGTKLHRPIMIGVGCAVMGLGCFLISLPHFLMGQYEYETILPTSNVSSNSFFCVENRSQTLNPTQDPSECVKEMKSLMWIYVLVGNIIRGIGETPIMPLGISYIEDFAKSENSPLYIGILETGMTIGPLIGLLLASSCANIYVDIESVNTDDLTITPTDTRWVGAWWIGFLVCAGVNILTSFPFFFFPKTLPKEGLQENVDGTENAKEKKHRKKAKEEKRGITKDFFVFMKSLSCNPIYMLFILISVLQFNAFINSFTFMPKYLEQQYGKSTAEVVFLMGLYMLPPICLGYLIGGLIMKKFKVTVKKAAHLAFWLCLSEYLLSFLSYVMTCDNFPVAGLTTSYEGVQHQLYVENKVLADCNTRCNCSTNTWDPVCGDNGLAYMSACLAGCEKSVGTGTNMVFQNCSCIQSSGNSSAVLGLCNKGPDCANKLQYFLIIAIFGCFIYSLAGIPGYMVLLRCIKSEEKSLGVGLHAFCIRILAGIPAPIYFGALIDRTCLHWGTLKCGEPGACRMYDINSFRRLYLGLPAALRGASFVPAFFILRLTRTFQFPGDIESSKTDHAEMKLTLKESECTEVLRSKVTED

[3] = biological target: T2, Oatp2 (Solute carrier organic anion transporter family member 1A4); experiment: TP_TRANSPORTER: inhibition of Digoxin uptake (Digoxin: 0.05 uM, Corticosterone: 100 uM) in Oatp2-expressing LLC-PK1 cells; assay type: functional, cell-based; set-up: scale not given: the % may be the effect or the level left; details: pig, probe Digoxin, read-out: Activity
[4] = biological target: T1, Oatp1 (Solute carrier organic anion transporter family member 1A1); experiment: TP_TRANSPORTER: inhibition of E217betaG uptake (E217betaG: 0.1 uM, Deoxycorticosterone: 100 uM) in Oatp1-expressing LLC-PK1 cells; assay type: functional, cell-based; set-up: scale not given: the % may be the effect or the level left; details: pig, probe E217betaG, read-out: Activity
[5] = biological target: T2, Oatp2 (Solute carrier organic anion transporter family member 1A4); experiment: TP_TRANSPORTER: inhibition of Digoxin uptake (Digoxin: 0.05 uM, Deoxycorticosterone: 100 uM) in Oatp2-expressing LLC-PK1 cells; assay type: functional, cell-based; set-up: scale not given: the % may be the effect or the level left; details: pig, probe Digoxin, read-out: Activity
[6] = biological target: T1, Oatp1 (Solute carrier organic anion transporter family member 1A1); experiment: TP_TRANSPORTER: inhibition of E217betaG uptake (E217betaG: 0.1 uM, Glibenclamide: 1000 uM) in Oatp1-expressing LLC-PK1 cells; assay type: functional, cell-based; set-up: scale not given: the % may be the effect or the level left; details: pig, probe E217betaG, read-out: Activity
[7] = biological target: T2, Oatp2 (Solute carrier organic anion transporter family member 1A4); experiment: TP_TRANSPORTER: inhibition of Digoxin uptake (Digoxin: 0.05 uM, Glibenclamide: 1000 uM) in Oatp2-expressing LLC-PK1 cells; assay type: functional, cell-based; set-up: scale not given: the % may be the effect or the level left; details: pig, probe Digoxin, read-out: Activity
[8] = biological target: T3, Solute carrier organic anion transporter family member 1A1 (Rattus norvegicus, UniProt P46720); experiment: TP_TRANSPORTER: inhibition of E217betaG uptake in Oatp1-expressing LLC-PK1 cells; assay type: functional, cell-based
T3 sequence (P46720 whole entry): T1 sequence (P46720 whole entry)

[9] = biological target: T4, Solute carrier organic anion transporter family member 1A4 (Rattus norvegicus, UniProt O35913); experiment: TP_TRANSPORTER: inhibition of Digoxin uptake in Oatp2-expressing LLC-PK1 cells; assay type: functional, cell-based
T4 sequence (O35913 whole entry): T2 sequence (O35913 whole entry)

[10] = biological target: T1, Oatp1 (Solute carrier organic anion transporter family member 1A1); experiment: TP_TRANSPORTER: inhibition of E217betaG uptake (E217betaG: 0.1 uM, Indomethacin: 1000 uM) in Oatp1-expressing LLC-PK1 cells; assay type: functional, cell-based; set-up: scale not given: the % may be the effect or the level left; details: pig, probe E217betaG, read-out: Activity
[11] = biological target: T2, Oatp2 (Solute carrier organic anion transporter family member 1A4); experiment: TP_TRANSPORTER: inhibition of Digoxin uptake (Digoxin: 0.05 uM, Indomethacin: 1000 uM) in Oatp2-expressing LLC-PK1 cells; assay type: functional, cell-based; set-up: scale not given: the % may be the effect or the level left; details: pig, probe Digoxin, read-out: Activity
[12] = biological target: T1, Oatp1 (Solute carrier organic anion transporter family member 1A1); experiment: TP_TRANSPORTER: inhibition of E217betaG uptake (E217betaG: 0.1 uM, Ketoprofen: 1000 uM) in Oatp1-expressing LLC-PK1 cells; assay type: functional, cell-based; set-up: scale not given: the % may be the effect or the level left; details: pig, probe E217betaG, read-out: Activity
[13] = biological target: T2, Oatp2 (Solute carrier organic anion transporter family member 1A4); experiment: TP_TRANSPORTER: inhibition of Digoxin uptake (Digoxin: 0.05 uM, Ketoprofen: 1000 uM) in Oatp2-expressing LLC-PK1 cells; assay type: functional, cell-based; set-up: scale not given: the % may be the effect or the level left; details: pig, probe Digoxin, read-out: Activity
[14] = biological target: T1, Oatp1 (Solute carrier organic anion transporter family member 1A1); experiment: in vitro; details: pig, Oatp1-expressing LLC-PK1 cells, probe E217betaG
[15] = biological target: T2, Oatp2 (Solute carrier organic anion transporter family member 1A4); experiment: in vitro; details: pig, Oatp2-expressing LLC-PK1 cells, probe Digoxin
[16] = biological target: T1, Oatp1 (Solute carrier organic anion transporter family member 1A1); experiment: TP_TRANSPORTER: inhibition of E217betaG uptake (E217betaG: 0.1 uM, Tolbutamide: 1000 uM) in Oatp1-expressing LLC-PK1 cells; assay type: functional, cell-based; set-up: scale not given: the % may be the effect or the level left; details: pig, probe E217betaG, read-out: Activity
[17] = biological target: T2, Oatp2 (Solute carrier organic anion transporter family member 1A4); experiment: TP_TRANSPORTER: inhibition of Digoxin uptake (Digoxin: 0.05 uM, Tolbutamide: 1000 uM) in Oatp2-expressing LLC-PK1 cells; assay type: functional, cell-based; set-up: scale not given: the % may be the effect or the level left; details: pig, probe Digoxin, read-out: Activity
[18] = substrate: C[C@]12CC[C@@H]3c4ccc(O)cc4CC[C@H]3[C@@H]1CC[C@@H]2O[C@@H]1O[C@H](C(=O)O)[C@@H](O)[C@H](O)[C@H]1O; experiment: TP_TRANSPORTER: uptake in Oatp1-expressing LLC-PK1 cells; assay type: functional, cell-based
[19] = substrate: C[C@H]1O[C@@H](O[C@H]2[C@@H](O)C[C@H](O[C@H]3[C@@H](O)C[C@H](O[C@H]4CC[C@@]5(C)[C@H](CC[C@@H]6[C@@H]5C[C@@H](O)[C@]5(C)[C@@H](C7=CC(=O)OC7)CC[C@]65O)C4)O[C@@H]3C)O[C@@H]2C)C[C@H](O)[C@@H]1O; experiment: TP_TRANSPORTER: uptake in Oatp2-expressing LLC-PK1 cells; assay type: functional, cell-based

Question: For `COc1ccc(CCN(C)CCCC(C#N)(c2ccc(OC)c(OC)c2)C(C)C)cc1OC` (stereo not drawn), which activity at 1000 µM [1] is on record?
Answer: Its activity at 1000 µM is 3.93%.

Question: What about the activity at 1000 µM [2] of the same molecule?
Answer: The activity at 1000 µM was 4.12%.

Question: With `C[C@]12C[C@H](O)[C@H]3[C@@H](CCC4=CC(=O)CC[C@@]43C)[C@@H]1CC[C@@H]2C(=O)CO` [CORTICOSTERONE] as the molecule, how does the activity at 100 µM [3] read?
Answer: The activity at 100 µM was 32.9%.

Question: With `C[C@]12CC[C@H]3[C@@H](CCC4=CC(=O)CC[C@@]43C)[C@@H]1CC[C@@H]2C(=O)CO` [DESOXYCORTICOSTERONE] as the molecule, how does the activity at 100 µM [4] read?
Answer: Its activity at 100 µM is 1.34%.

Question: What about the activity at 100 µM [5] of the same molecule?
Answer: The activity at 100 µM was 13.6%.

Question: For `COc1ccc(Cl)cc1C(=O)NCCc1ccc(S(=O)(=O)NC(=O)NC2CCCCC2)cc1` [GLYBURIDE], which activity at 1000 µM [6] is on record?
Answer: The activity at 1000 µM was 2.33%.

Question: What about the activity at 1000 µM [7] of the same molecule?
Answer: The activity at 1000 µM was 1.61%.

Question: What does the source list for `CC(C)Cc1ccc(C(C)C(=O)O)cc1` (stereo not drawn) [IBUPROFEN]?
Answer: Ki [8]: 126 µM; Ki [9]: 2430 µM

Question: `COc1ccc2c(c1)c(CC(=O)O)c(C)n2C(=O)c1ccc(Cl)cc1` [INDOMETHACIN] was tested. Which activity at 1000 µM [10] did it give?
Answer: The activity at 1000 µM was 1.16%.

Question: And the activity at 1000 µM [11]?
Answer: The activity at 1000 µM was 14.3%.

Question: With `CC(C(=O)O)c1cccc(C(=O)c2ccccc2)c1` (stereo not drawn) [KETOPROFEN] as the molecule, how does the activity at 1000 µM [12] read?
Answer: The activity at 1000 µM was 6.89%.

Question: And the activity at 1000 µM [13]?
Answer: The activity at 1000 µM was 30.2%.

Question: With `COc1ccc2cc([C@H](C)C(=O)O)ccc2c1` [NAPROXEN] as the molecule, how does the activity at 1000 µM [14] read?
Answer: The activity at 1000 µM was 19.9%.

Question: And the activity at 1000 µM [15]?
Answer: Its activity at 1000 µM is 52.2%.

Question: With `C=C[C@H]1C[N@@]2CC[C@H]1C[C@@H]2[C@@H](O)c1ccnc2ccc(OC)cc12` [QUINIDINE] as the molecule, how does the Ki [9] read?
Answer: Its Ki is 120 µM.

Question: Which Ki [9] does the source give for `C=C[C@H]1C[N@@]2CC[C@H]1C[C@H]2[C@H](O)c1ccnc2ccc(OC)cc12` [QUININE] here?
Answer: Its Ki is 3.81 µM.

Question: Which results are given for `CO[C@H]1/C=C/O[C@@]2(C)Oc3c(C)c(O)c4c(O)c(c(/C=N/N5CCN(C)CC5)c(O)c4c3C2=O)NC(=O)/C(C)=C\C=C\[C@H](C)[C@H](O)[C@@H](C)[C@@H](O)[C@@H](C)[C@H](OC(C)=O)[C@@H]1C` [RIFAMPIN]?
Answer: Ki [8]: 18.2 µM; Ki [9]: 1.46 µM

Question: Which activity at 1000 µM [16] does the source give for `CCCCNC(=O)NS(=O)(=O)c1ccc(C)cc1` [TOLBUTAMIDE] here?
Answer: The activity at 1000 µM was 32.9%.

Question: What about the activity at 1000 µM [17] of the same molecule?
Answer: The activity at 1000 µM was 47.3%.

B1: Solute carrier organic anion transporter family member 1A1 (Rattus norvegicus) (protein)
chain: T1 sequence (P46720 whole entry)
Question: For B1, which Km [18] is on record?
Answer: Its Km is 11.2 µM.

B2: Solute carrier organic anion transporter family member 1A4 (Rattus norvegicus) (protein)
chain: T2 sequence (O35913 whole entry)
Question: B2 was tested. Which Km [19] did it give?
Answer: The Km was 0.279 µM.

Reference: ChEMBL document CHEMBL2073782, “Comparative inhibitory effects of different compounds on rat oatpl (slc21a1)- and Oatp2 (Slc21a5)-mediated transport” (Pharm Res, 2002)
